# Data published in PMC9232636, “Insights into the mechanism of action of the arbitrium communication system in SPbeta phages” (Nature Communications, 2022).
# “Also recorded” adds a separate entry of the source.
# What was measured:
# [1] = test system: AimR^Kat-N273A-DNA interaction; assay: EMSA, peptide-induced release of AimR^Kat-N273A from its target DNA; type: biochemical, Katmira phage; settings: protein preincubated with 0.5 μM peptide 10 min, repeated three times
# Description: (§1) AimR binding to its operator and the inhibition induced by the arbitrium peptide was analysed by native polyacrylamide and agarose gel electrophoresis. Double strand DNA primer probes were purchased from Macrogen. DNA (10 ng µl^−1) and AimR (from 0.5 μM) protein was mixed in EMSA buffer (50 mM tris pH8, 250 mM NaCl). The samples were incubated for 10 min at room temperature. For peptide inhibition assay, protein was preincubated with 0.5 μM peptide for 10 min before DNA addition. Electrophoresis was then performed in 8% polyacrylamide gels in Tris-Borate-EDTA (TBE) buffer for about 150 min at 100 V at 4 °C.
# AimR^Kat = biological target: T1, AimR^Kat (Bacillus subtilis (Katmira prophage), UniProt A0A8I3AZZ2); type: binding, Katmira phage; settings: for Tm: Supplementary Fig. 5a, peptides at 0.5mM; for effect on Tm / stabilisation (in words): ThermoFluor
# T1 sequence (A0A8I3AZZ2 2-387): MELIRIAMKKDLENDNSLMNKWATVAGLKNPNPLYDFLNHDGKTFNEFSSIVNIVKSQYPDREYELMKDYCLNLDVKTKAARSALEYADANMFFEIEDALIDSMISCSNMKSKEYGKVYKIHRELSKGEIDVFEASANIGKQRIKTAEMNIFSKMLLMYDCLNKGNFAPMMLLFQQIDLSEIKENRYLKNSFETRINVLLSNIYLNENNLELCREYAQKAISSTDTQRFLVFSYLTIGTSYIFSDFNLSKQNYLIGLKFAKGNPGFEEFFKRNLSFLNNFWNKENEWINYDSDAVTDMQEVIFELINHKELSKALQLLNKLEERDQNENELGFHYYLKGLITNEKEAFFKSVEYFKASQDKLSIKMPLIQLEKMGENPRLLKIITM
# Description: The thermal shift assay was conducted in a 7500 Fast Real time PCR System (Applied Biosystems) as previously described. Briefly, samples of 20 μl buffer (20 mM Tris pH 8 and 250 mM NaCl) containing 5× Sypro Orange (Sigma-Aldrich) and 20 μM of protein were loaded in 96-well PCR plates. […] Samples were heated from 25 to 85 °C in steps of one degree. Fluorescent intensity was plotted versus temperature and integrated with GraphPad Prism software using a Boltzmann model to calculate melting temperatures.
# AimR^Kat-DNA interaction = assay: EMSA, peptide-induced release of AimR^Kat from its DNA operator; type: biochemical, Katmira phage; settings: protein preincubated with 0.5 μM peptide 10 min, repeated three times
# Description: as §1
# AimR^Kat-N273A [2] = biological target: T2, AimR^Kat-N273A (Bacillus subtilis, UniProt A0A8I3AZZ2, N274A); assay: ITC, AimP binding to AimR^Kat-N273A; parameters: species or system Katmira phage; settings: 25 °C, 25 mM Tris-HCl pH 8, 250 mM NaCl
# Description: ITC assays were carried out in a Nano ITC Low Volume (TA instruments). In the assays, proteins (AimR^Kat or AimR^Kat-N273A) and peptides concentration were 10 and 50 μM, respectively, and both were diluted in buffer 25 mM Tris-HCl pH 8, 250 mM NaCl. The experiments were performed at 25 °C. The data obtained was integrated, corrected and analysed using the NanoAnalyze software (TA Instruments) with a single-site or two-site binding models.
# AimR^Kat-N273A [3] = biological target: T2, AimR^Kat-N273A; assay: Thermal shift assay of AimR^Kat-N273A with peptides; type: binding, Katmira phage; settings: ThermoFluor
# Description: The thermal shift assay was conducted in a 7500 Fast Real time PCR System (Applied Biosystems) as previously described. Briefly, samples of 20 μl buffer (20 mM Tris pH 8 and 250 mM NaCl) containing 5× Sypro Orange (Sigma-Aldrich) and 20 μM of protein were loaded in 96-well PCR plates. To calculate the Tm in the presence of the peptide, 0.5 μM of GMPRGA or GIVRGA peptide was added to the mixture. Samples were heated from 25 to 85 °C in steps of one degree. Fluorescent intensity was plotted versus temperature and integrated with GraphPad Prism software using a Boltzmann model to calculate melting temperatures.
# AimR^SPβ = settings: previously reported; cited from earlier work
# [4] = test system: SPβ ΔaimR prophage complemented with AimR^SPβ; assay: Prophage induction and phage titering, SPβ ΔaimR complemented with AimR^SPβ; type: cell-based, phage SPβ in B. subtilis; settings: for phage titer: JP 20223, 5 μM peptide, MC induced
# Description: For induction, an overnight culture was diluted 1/100 in LB media supplemented with 0.1 mM MnCl2 and 5 mM MgCl2 and then grown at 37 °C with 210 rpm shaking until reaching absorbance 0.2 at 600 nm. This step was repeated twice to ensure the cells were in exponential growth. After the second growth, Mitomycin C (MC) at 0.5 μg ml^−1 was added to the culture. Where experiments were performed to test the effect of peptide on phage titre, 5 μM of the relevant peptide was added before starting the second growth to ensure the bacteria cells were able to incorporate the peptide. The induced cultures were incubated at 30 °C with 80 rpm shaking for 4 h and then left overnight at room temperature. Following lysis, samples were filtered using 0.2 μm filters and lysates were stored at 4 °C until use.
# The number of phage particles contained in the phage lysate of interest was quantified by a titering assay. An overnight culture of the relevant recipient strain (normally B. subtilis ∆6 or with the corresponding plasmid) was diluted 1/100 in LB supplemented with 0.1 mM MnCl2 and 5 mM MgCl2 and then grown at 37 °C with 210 rpm shaking until reaching absorbance 0.2 at 600 nm. When required 1 mM IPTG was added. Then, 100 μl of recipient bacteria was infected with 100 μl of serial dilutions of phage lysate in phage buffer (PhB; 1 mM NaCl, 0.05 M Tris pH 7.8, 0.1 mM MnCl2, 5 mM MgCl2) at room temperature for 10 min and 3 ml of phage top agar (LB media supplemented with 0.1 mM MnCl2 and 5 mM MgCl2 and 0.7 % agar) at 55 °C was added to the culture-phage mix and immediately poured over phage base agar plates (LB media supplemented with 0.1 mM MnCl2 and 5 mM MgCl2 and 1.5% agar). Plaques were counted after overnight growth at 37 °C temperature and photographed.
Substance,release of AimR^Kat-N273A from DNA [1],Tm (AimR^Kat),effect on Tm / stabilisation (in words) (AimR^Kat),release of AimR^Kat from DNA (AimR^Kat-DNA interaction),release of AimR^Kat from DNA (AimR^Kat-DNA interaction; listed as SAIRGA),binding by ITC (in words) (AimR^Kat-N273A [2]),stabilisation / binding capacity (in words) (AimR^Kat-N273A [3]),increase of Tm (AimR^SPβ) [°C],phage titer ([4]; repeat 1) [pfu/ml],phage titer ([4]; repeat 2) [pfu/ml],phage titer ([4]; repeat 3) [pfu/ml],phage titer ([4]; repeat 4) [pfu/ml],phage titer ([4]; repeat 5) [pfu/ml],phage titer ([4]; repeat 6) [pfu/ml],phage titer ([4]; repeat 7) [pfu/ml],"reduction of phage titre ([4]; MC 0.5 μg/ml, 5 μM peptide, compared with no peptide) [times]",release of AimR^Kat from DNA (AimR^Kat-DNA interaction; listed as GMPRGA)
"SAIRGA [AimP^Phi, the phi3T AimP peptide]",insensitive,43 ºC,did not have any effect,insensitive,"neither GMPRGA (AimP^SPβ) nor SAIRGA (the phi3T AimP peptide, AimP^Phi) (Fig. 1b) affected AimR^Kat in its ability to recognise its cognate DNA box",unable to bind,–,–,–,–,–,–,–,–,–,–,–
"GMPRGA [AimP^SPβ, the SPβ AimP peptide]",induce DNA releases for the N273A mutant form of AimR^Kat; also recorded: able to induce the release of AimR^Kat-N273A from its target DNA,43 ºC,did not have any effect,only AimP^Kat for the wt form,–,–,stabilises AimR^Kat-N273A,10,7.90E+08,9.60E+07,2.12E+09,6.30E+07,8.90E+07,2.90E+08,7.80E+07,10,"neither GMPRGA (AimP^SPβ) nor SAIRGA (the phi3T AimP peptide, AimP^Phi) (Fig. 1b) affected AimR^Kat in its ability to recognise its cognate DNA box"
